Experimental data taken from patent US6673348B2, “Heat shock protein-based vaccines and immunotherapies” (priority 1995, dated 2004).
No end group written: not given here.

Columns and labels:
[1] = system: Ova-peptide pulsed EL4 cells; test: Cytotoxicity of spleen cells from vaccinated mice, 18-hour chromium release assay; format: in vivo, C57BL/6 mice; conditions: mice immunized with the single component alone
Protocol: The purified hsp70 was combined with the synthesized peptides and used for immunization. To form the hsp70/peptide mixtures, approximately 15 μg (21.5 μM) hsp70 was combined with 5 μg of ova-peptide (0.5 mM, SEQ. ID. NO: 7) or 10 μg (0.5 mM) hybrid peptide (SEQ. ID NOS: 8 and 9) were mixed on ice to a final volume of 10 μl in Buffer B (final concentration: 20 mM Hepes pH 7.0, 150 mM KCl, 10 mM (NH4)2SO4, 2 mM MgCl2 and 2 mM MgADP, pH 7.0). The mixtures were incubated for 30 minutes at 37° C. and then used for in vivo immunizations.
C57BL/6 mice were immunized intradermally once a week for a total of two weeks with 10 μL of one of the mixtures described above or with a mixture of TITERMAX® (Vaxcell, Norcross, Ga.) and Ova-peptide (5 μg). One week after the second immunization, spleen cells were removed and mononuclear cells (6-8×10^7) were cultured with 3×10^6 γ-irradiated (3000 rad) stimulator cells. The stimulator cells were obtained from naive mice that had been sensitized in vitro with Ova-peptide (10 mg/ml) for 30 minutes at room temperature, washed and irradiated at 3000 rads.
Cytotoxicity of spleen cells from vaccinated mice were assayed on Ova-peptide pulsed EL4 cells in an 18-hour chromium release assay. CTL were generated by culturing in vivo immunized spleen cells for 5 days at a concentration of 10^6 cells/mL in RPMI medium, 10% FCS, penicillin, streptomycin and 2 mM L-glutamine, together with 3×10^6 γ-irradiated (3,000 rad) stimulator cells/mL. Target cells were prepared by culturing cells for 1 hour in the presence of 250 μCi of ^51Cr sodium chromate (DuPont, Boston, Mass.) in Tris-phosphate buffer, pH 7.4 at 37° C. for 60 minutes. After washing, 10^4 ^51Cr-labeled target cells were mixed with effector lymphocytes to yield several different effector/target (E/T) ratios and were incubated for 18 hours. Supernatants were harvested and the radio-activity was measured in a gamma counter. Percent specific lysis was calculated as: 100×[(cpm release by CTL-cpm spontaneous release)/(cpm maximal release—cpm spontaneous release)]. Maximal response was determined by addition of 1% Triton X-100. Spontaneous release of all target in the absence of effector cells was less than 25% of the maximal release.

BiP [2] = target: T1, BiP (Mus musculus, UniProt P20029); test: Binding of 14C-labeled OVA-BiP to heat shock protein, co-elution on Sephacryl S-300 column; conditions: 100 μM 14C-labeled peptide, 50 μg BiP, 37° C., 30 minutes
T1 construct: mature wild-type or KDEL-deleted BiP can be harvested from the periplasm; extra Met (initiator ATG of the 5' primer, ahead of the mature N-terminus) (N); made in house; host or cells: E. coli BL21, pET22, periplasmic extract
T1 sequence (P20029 20-655): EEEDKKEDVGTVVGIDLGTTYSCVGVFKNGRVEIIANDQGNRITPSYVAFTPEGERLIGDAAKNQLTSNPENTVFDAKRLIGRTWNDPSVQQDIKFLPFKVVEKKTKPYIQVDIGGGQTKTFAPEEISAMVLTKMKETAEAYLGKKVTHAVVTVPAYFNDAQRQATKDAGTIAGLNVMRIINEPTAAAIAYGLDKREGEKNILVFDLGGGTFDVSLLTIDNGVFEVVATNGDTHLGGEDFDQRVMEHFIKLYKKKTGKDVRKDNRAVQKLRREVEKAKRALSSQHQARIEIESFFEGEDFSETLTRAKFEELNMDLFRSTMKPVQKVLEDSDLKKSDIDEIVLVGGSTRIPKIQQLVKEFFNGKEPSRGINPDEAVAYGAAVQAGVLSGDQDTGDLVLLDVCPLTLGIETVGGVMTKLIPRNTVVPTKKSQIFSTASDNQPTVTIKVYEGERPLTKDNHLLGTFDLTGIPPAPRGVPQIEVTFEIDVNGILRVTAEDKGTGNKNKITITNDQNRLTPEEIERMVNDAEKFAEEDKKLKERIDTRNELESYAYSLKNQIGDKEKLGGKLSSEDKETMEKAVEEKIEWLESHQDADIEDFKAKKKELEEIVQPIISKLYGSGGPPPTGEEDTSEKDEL
Protocol: ^14C-labeled OVA-BiP was prepared by alkylation of OVA-BiP with ^14C-formaldehyde. 0.9 mg of OVA-BiP in 300 uL 10% DMSO/water was added to 175 μl of ^14C-formaldehyde (62 μCi) and immediately 50 uL of freshly made up 200 mM NaCNBH3 was added. The reaction was mixed and left at 25° C. for 3 hours. The labeled peptide was repurified by reverse phase HPLC on a C-4 column in a 15 minute 0-100% acetonitrile (0.1% TFA) gradient.
The ability of the OVA-BiP peptide to bind to heat shock proteins was measured by incubating 100 μM (5μg) ^14C-labeled OVA-BiP with 50 μg of BiP (prepared as in example 11), hsp70 (as prepared in Example 2) or grp96 (prepared as in Example 10) in a final volume of 20 μl of buffer (50 mM Mops, pH 7.2., […] NaCl, 5 mM MgAcetate) at 37° C. for 30 minutes. The samples were then spun down (5 minutes in a microfuge) and loaded onto a 17 cm long Sephacryl S-300 column equilibrated in binding buffer (50 mM Mops, pH 7.2., 200 mM NaCl, 5 mM MgAcetate) and fractions were collected dropwise. 50 μl of each ˜225 μl fraction was counted in scintillation liquid. 10 μl of each fraction was also run on a 12% SDS-PAGE reducing gel. […] The result for gp96 is unclear because the peak at fraction 11 (which may represent an aggregation phenomenon) and the gp96 peak (fraction 14) elute close together on the column used.

hsp70 = target: T2, hsp70 (Mus musculus, UniProt P17879); test: as above; conditions: 100 μM 14C-labeled peptide, 50 μg hsp70, 37° C., 30 minutes
T2 construct: made in house; host or cells: E. coli DH5α, plasmid pMS236
T2 sequence (P17879 whole entry): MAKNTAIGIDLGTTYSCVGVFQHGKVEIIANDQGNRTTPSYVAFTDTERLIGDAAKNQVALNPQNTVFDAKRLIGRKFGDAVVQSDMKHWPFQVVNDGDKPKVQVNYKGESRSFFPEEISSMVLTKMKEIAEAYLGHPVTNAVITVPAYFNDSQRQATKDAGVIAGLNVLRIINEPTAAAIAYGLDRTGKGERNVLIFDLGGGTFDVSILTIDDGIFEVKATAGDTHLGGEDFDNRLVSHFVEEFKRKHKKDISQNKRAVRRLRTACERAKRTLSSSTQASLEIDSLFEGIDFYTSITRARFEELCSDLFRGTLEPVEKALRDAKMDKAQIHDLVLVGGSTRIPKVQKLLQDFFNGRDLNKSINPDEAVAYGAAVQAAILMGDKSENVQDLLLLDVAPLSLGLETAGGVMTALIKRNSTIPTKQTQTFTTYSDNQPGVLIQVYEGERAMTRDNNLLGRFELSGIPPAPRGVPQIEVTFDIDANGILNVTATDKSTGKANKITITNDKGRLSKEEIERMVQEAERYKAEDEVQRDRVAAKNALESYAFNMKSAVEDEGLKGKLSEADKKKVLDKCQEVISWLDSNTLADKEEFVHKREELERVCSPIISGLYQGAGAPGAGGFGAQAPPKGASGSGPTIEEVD
Protocol: Purified mouse cytosolic hsp70 was prepared from E. coli DH5α cells transformed with pMS236 encoding mouse cytosolic hsp70. The cells were grown to an optical density (600 nm) of 0.6 at 37° C., and expression was induced by the addition of IPTG to a final concentration of 1 mM. Cells were harvested by centrifugation 2 to 5 hours post induction and the pellets were resuspended to 20 mL with Buffer A (20 mM Hepes pH 7.0, 25 mM KCl, 1 mM DTT, 10 mM (NH4)2SO4, 1 mM PMSF). The cells were lysed by passing three times through a French press. The lysate was cleared by a low speed spin, followed by centrifugation at 100,000×G for 30 minutes. The cleared lysate was applied to a Pharmacia XK26 column packed with 100 mL DEAE Sephacel and equilibrated with Buffer A at a flow rate of 0.6 cm/min. The column was washed to stable baseline with Buffer A and eluted with Buffer A adjusted to 175 mM KCl. […]
The ability of the OVA-BiP peptide to bind to heat shock proteins was measured by incubating 100 μM (5μg) ^14C-labeled OVA-BiP with 50 μg of BiP (prepared as in example 11), hsp70 (as prepared in Example 2) or grp96 (prepared as in Example 10) in a final volume of 20 μl of buffer (50 mM Mops, pH 7.2., […] NaCl, 5 mM MgAcetate) at 37° C. for 30 minutes. […] 50 μl of each ˜225 μl fraction was counted in scintillation liquid. […]

BiP [3] = target: T1, BiP; test: ATP-mediated peptide release, elution profile of 125I-OVA-BiP and BiP; format: binding; conditions: presence and absence of 2 mM ATP
Protocol: To prepare ^125I-OVA-BiP, 250 μCi of monoiodinated Bolton-Hunter reagent was transferred into a stoppered vial and the solvent in which it was dissolved was evaporated with a gentle stream of argon gas. To the dried reagent 222 μL of 4.5 mg/mL OVA-BiP in 100 mM NaBO3, pH 8, […], 10% DMSO was added. The reaction was mixed and incubated at 25° C. for 45 minutes and continued at 4° C. for a further hour. The labeled peptide was repurified by reverse phase HPLC on a C-4 column in a 20 minute, 0-100% acetonitrile (0.1% TFA) gradient. The iodinated OVA-BiP was combined with BiP in substantially the same manner as the heat shock proteins in Example 7, except that since the iodinated peptide was at a very low concentration, 1 μl (approx 32 ng) of labeled peptide was mixed with 5 μg of unlabeled peptide and this was incubated with 50 μg of BiP in 20 μL of binding buffer. To observe ATP-mediated peptide release, ATP was added to a final concentration of 2 mM after the 30 minute incubation and incubated for a further 5 minutes prior to spinning. These samples were run on the same column as above, but equilibrated in binding buffer supplemented with 2 mM ATP. […] This is consistent with the observation that ATP mediates release of bound proteins or polypeptides from heat shock proteins.

| Substance | results on cells pulsed with Ova-peptide (FIG. 5A) versus cells not pulsed (FIG. 5B) [1] | radio-activity co-eluting with heat shock protein (FIG. 6) (BiP [2]) | radio-activity co-eluting with heat shock protein (FIG. 6) (hsp70) | release of hybrid peptide from BiP on addition of ATP (FIG. 7) (BiP [3]) |
| --- | --- | --- | --- | --- |
| HWDFAWPWGSGSIINFEKL [BiP-OVA] | the same |  |  |  |
| SIINFEKLGSGHWDFAWPW [OVA-BiP] | the same | significant amount of radio-activity elutes with BiP | significant amount of radio-activity elutes with BiP and hsp70 |  |
| Ser-Ile-Ile-Asn-Phe-Glu-Lys-Leu (SIINFEKL) [Ova-peptide, OVA antigenic domain peptide, reference compound] | the same |  |  |  |
| ^125I-OVA-BiP: OVA-BiP labeled with monoiodinated Bolton-Hunter reagent (SIINFEKLGSGHWDFAWPW; also: labelled with monoiodinated (125I) Bolton-Hunter reagent, place not given here) |  |  |  | addition of ATP causes the release |
| hsp70: purified recombinant mouse cytosolic hsp70 from E. coli DH5α transformed with pMS236 | the same |  |  |  |
